In PubChem BioAssay AID330 (DTP/NCI, 2004):
Where “and” joins values, the source holds several entries; their conditions need not be identical. Equal entries are not always repeated. Inconclusive results and toxic doses are left out. The calls were made as follows: active = survival T/C of 150% or more; inactive = T/C below 125% in these data.

Test system: P388 leukemia ip, CD2F1 mice, survival T/C
Test: NCI In Vivo Anticancer Drug Screen. Data for tumor model P388 Leukemia (intraperitoneal) in CD2F1 (CDF1) mice
Details: endpoint: median survival time, higher = longer survival
How it was run: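 Mice carrying the transplanted tumor received test compound or vehicle. Survival was recorded in each group, and the value is the treated-group measurement divided by that of the vehicle-treated control group.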

[1] = dose: 100.0 mg/kg/injection, schedule: Q04DX002 (ip), vehicle: saline with Tween-80
[2] = dose: 200.0 mg/kg/injection, schedule: Q04DX002 (ip), vehicle: saline with Tween-80
[3] = dose: 12.5 mg/kg/injection, schedule: Q01DX009 (ip), vehicle: saline
[4] = dose: 25.0 mg/kg/injection, schedule: Q01DX009 (ip), vehicle: saline
[5] = dose: 50.0 mg/kg/injection, schedule: Q01DX009 (ip), vehicle: saline
[6] = dose: 100.0 mg/kg/injection, schedule: Q01DX009 (ip), vehicle: saline
[7] = dose: 100.0 mg/kg/injection, schedule: Q04DX003 (ip), vehicle: saline
[8] = dose: 100.0 mg/kg/injection, schedule: Q01DX009 (ip), vehicle: saline with Tween-80
[9] = dose: 200.0 mg/kg/injection, schedule: Q01DX009 (ip), vehicle: saline with Tween-80
[10] = dose: 60.0 mg/kg/injection, schedule: Q01DX005 (ip), vehicle: saline with Tween-80
[11] = dose: 120.0 mg/kg/injection, schedule: Q01DX005 (ip), vehicle: saline with Tween-80
[12] = dose: 240.0 mg/kg/injection, schedule: Q01DX005 (ip), vehicle: saline with Tween-80
[13] = dose: 100.0 mg/kg/injection, schedule: Q04DX003 (ip), vehicle: saline with Tween-80
[14] = dose: 200.0 mg/kg/injection, schedule: Q04DX003 (ip), vehicle: saline with Tween-80
[15] = dose: 50.0 mg/kg/injection, schedule: Q01DX009 (ip), vehicle: Klucel (hydroxypropylcellulose) (HPC)
[16] = dose: 100.0 mg/kg/injection, schedule: Q01DX009 (ip), vehicle: Klucel (hydroxypropylcellulose) (HPC)
[17] = dose: 50.0 mg/kg/injection, schedule: Q01DX009 (ip), vehicle: saline with Tween-80

Measured: T/C

O=C1CSC(c2cccs2)N1CCN1C(=O)CSC1c1cccs1 (centres undefined)
inactive: [1] 100 % of control | [2] 96 % of control

c1cc[n+](Cc2c3ccccc3cc3c2ccc2ccccc23)cc1
inactive: dose: 6.25 mg/kg/injection, schedule: Q01DX005 (ip), vehicle: Klucel (hydroxypropylcellulose) (HPC) 112 % of control | dose: 12.5 mg/kg/injection, schedule: Q01DX005 (ip), vehicle: Klucel (hydroxypropylcellulose) (HPC) 112 % of control | dose: 25.0 mg/kg/injection, schedule: Q01DX005 (ip), vehicle: Klucel (hydroxypropylcellulose) (HPC) 110 % of control

CCCC(=O)NN=C(C)C
inactive: [3] 104 % of control | [4] 109 % of control

O=[N+]([O-])c1ccc(OCC#CCOc2ccc([N+](=O)[O-])c(C(F)(F)F)c2)cc1C(F)(F)F
inactive: dose: 50.0 mg/kg/injection, schedule: Q01DX009 (ip), vehicle: other 105 % of control | dose: 100.0 mg/kg/injection, schedule: Q01DX009 (ip), vehicle: other 104 % of control | dose: 200.0 mg/kg/injection, schedule: Q01DX009 (ip), vehicle: other 102 % of control

CN(C)P1(N(C)C)=NP(N(C)C)(N(C)C)=NP(N(C)C)(N(C)C)=N1
inactive: [3] 99 % of control | [4] 89 % of control | dose: 25.0 mg/kg/injection, schedule: Q04DX003 (ip), vehicle: saline 99 % of control | [5] 90 % of control | dose: 50.0 mg/kg/injection, schedule: Q04DX003 (ip), vehicle: saline 100 % of control | [6] 96 % of control | [7] 100 % of control

Cc1cccc(/C=N\N=C\c2cccc(C)n2)n1
inactive: [8] 100 % of control | [9] 100 % of control

COc1ccc2c(O)c(S(=O)(=O)c3ccc(Cl)cc3)c(=O)oc2c1
inactive: [10] 102 % of control | [11] 112 % of control | [12] 102 % of control

C=CCOC(=O)C(NC(=O)OCCCC)NC(=O)OCCCC
inactive: dose: 50.0 mg/kg/injection, schedule: Q01DX005 (ip), vehicle: saline with Tween-80 103 % of control | dose: 100.0 mg/kg/injection, schedule: Q01DX005 (ip), vehicle: saline with Tween-80 100 % of control | dose: 200.0 mg/kg/injection, schedule: Q01DX005 (ip), vehicle: saline with Tween-80 98 % of control

CCc1c(C)[nH]c2ccc(N)cc12
inactive: dose: 25.0 mg/kg/injection, schedule: Q04DX003 (ip), vehicle: saline with Tween-80 99 % of control | dose: 50.0 mg/kg/injection, schedule: Q04DX003 (ip), vehicle: saline with Tween-80 93 % of control | [13] 93 % of control | [14] 110 % of control

Cc1ccccc1C1C2CCCC(C2=O)C(c2ccccc2C)N1C (centres undefined)
inactive: [7] 100 % of control | dose: 200.0 mg/kg/injection, schedule: Q04DX003 (ip), vehicle: saline 103 % of control | dose: 400.0 mg/kg/injection, schedule: Q04DX003 (ip), vehicle: saline 89 % of control

COc1ccc(CCN2C(=O)CSC2=S)cc1OC
inactive: [8] 100 % of control | [13] 90 % of control | [9] 90 % of control | [14] 90 % of control | dose: 400.0 mg/kg/injection, schedule: Q04DX003 (ip), vehicle: saline with Tween-80 90 % of control

C=CC(COC(=O)C(C)(C)OC(C)=O)c1ccc(OC(=O)C(C)C)c(OC)c1 (centres undefined)
inactive: dose: 12.5 mg/kg/injection, schedule: Q01DX009 (ip), vehicle: Klucel (hydroxypropylcellulose) (HPC) 94 % of control | [15] 100 % of control | [16] 102 % of control

O=S(=O)(CS(=O)(=O)c1ccccc1Br)c1ccccc1Br
inactive: dose: 30.0 mg/kg/injection, schedule: Q01DX005 (ip), vehicle: Klucel (hydroxypropylcellulose) (HPC) 100 % of control | dose: 60.0 mg/kg/injection, schedule: Q01DX005 (ip), vehicle: Klucel (hydroxypropylcellulose) (HPC) 100 % of control | dose: 120.0 mg/kg/injection, schedule: Q01DX005 (ip), vehicle: Klucel (hydroxypropylcellulose) (HPC) 100 % of control | dose: 240.0 mg/kg/injection, schedule: Q01DX005 (ip), vehicle: Klucel (hydroxypropylcellulose) (HPC) 100 % of control

N#CCCN(CCCN1CCOCC1)CN1C(=O)c2ccccc2C1=O
inactive: [15] 98 % of control | [16] 91 % of control | dose: 400.0 mg/kg/injection, schedule: Q01DX009 (ip), vehicle: Klucel (hydroxypropylcellulose) (HPC) 99 % of control

COc1ccc(C(C)c2cc3c(cc2OCC(C)=O)OCO3)cc1 (centres undefined)
inactive: [10] 97 % of control | [11] 94 % of control | [12] 94 % of control

CC(=O)c1ccc(Nc2cc(C)nc(N)n2)cc1
inactive: dose: 15.0 mg/kg/injection, schedule: Q01DX005 (ip), vehicle: saline with Tween-80 103 % of control | dose: 30.0 mg/kg/injection, schedule: Q01DX005 (ip), vehicle: saline with Tween-80 104 % of control | [10] 100 % of control and 105 % of control | [1] 112 % of control | [2] 96 % of control | dose: 400.0 mg/kg/injection, schedule: Q04DX002 (ip), vehicle: saline with Tween-80 99 % of control

CCn1c(=O)c2[nH]c(-n3c(Cl)nc4c3c(=O)n(CC)c(=O)n4CC)nc2n(CC)c1=O
inactive: [15] 101 % of control | [16] 98 % of control | dose: 200.0 mg/kg/injection, schedule: Q01DX009 (ip), vehicle: Klucel (hydroxypropylcellulose) (HPC) 120 % of control

CCSC(C(OC(C)=O)C(OC(C)=O)C(COC(C)=O)OC(C)=O)n1cnc2c(=S)nc[nH]c21 (centres undefined)
inactive: dose: 100.0 mg/kg/injection, schedule: Q01DX001 (ip), vehicle: saline with Tween-80 101 % of control | dose: 200.0 mg/kg/injection, schedule: Q01DX001 (ip), vehicle: saline with Tween-80 93 % of control | dose: 400.0 mg/kg/injection, schedule: Q01DX001 (ip), vehicle: saline with Tween-80 87 % of control

CCCC[NH-].CCCC[NH-].[I][Pt+2][I]
inactive: dose: 0.78 mg/kg/injection, schedule: Q01DX009 (ip), vehicle: other 103 % of control and 120 % of control

O=C1CCC2=C3C4CCCC5OC6CC(=O)CCC6=C(C6CCCC(OC2C1)C36)C54 (centres undefined)
inactive: [5] 96 % of control | [6] 100 % of control | dose: 200.0 mg/kg/injection, schedule: Q01DX009 (ip), vehicle: saline 96 % of control | dose: 400.0 mg/kg/injection, schedule: Q01DX009 (ip), vehicle: saline 100 % of control

CCCCCC(CN1CCCCC1)C(=O)/C=C/c1ccccc1 (centres undefined)
inactive: dose: 25.0 mg/kg/injection, schedule: Q01DX009 (ip), vehicle: saline with Tween-80 101 % of control | [17] 107 % of control | [8] 117 % of control

CC1([CH2][Hg][I])OCCOC1[CH2][Hg][I] (centres undefined)
inactive: [4] 105 % of control

O=C(CC(=NCCCN=C(CC(=O)c1ccccc1)c1ccccc1)c1ccccc1)c1ccccc1
inactive: [17] 96 % of control | [8] 100 % of control | [9] 100 % of control
